Experimental findings from patent US8481531B2, “Bicyclic heterocyclyl derivatives as FGFR kinase inhibitors for therapeutic use” (Astex Therapeutics Ltd, priority 2009, dated 2013) are described below.

One assay deals with T1, FGFR3 (Homo sapiens, UniProt P22607).
T1 construct: purchased Upstate
Nature of the assay: FGFR3 in vitro kinase inhibitory activity assay (TRF). The assay is classed as biochemical. Conditions: 8 μM ATP, 3 hours; read-out: FGFR3 IC50(μM) or % I. As for the experimental part: (§1) FGFR3, VEGFR2 and PDGFR in vitro Kinase Inhibitory Activity Assays
(§2) Enzymes (from Upstate), prepared at 2× final concentration, were incubated with test compounds, biotinylated Flt3 substrate (biotin-VASSDNEYFYVDF) (Cell Signalling Technology Inc.) and ATP in the appropriate assay buffer (Table 1). The reaction was allowed to proceed for 3 hours (FGFR3), 1 hour (VEGFR2, PDGFR-beta) at room temperature on a plate shaker at 700 rpm before being stopped with 35 mM EDTA, pH 8 (FGFR3, VEGFR2) or 55 mM EDTA, pH 8 (PDGFR-beta). 5× detection mix (50 mM HEPES pH 7.5, 0.1% BSA, 11.34 nM Eu-anti-pY (PY20) (PerkinElmer) 74 nM SA-XL665 (Cisbio) for FGFR3, 50 mM HEPES, pH 7.5, 0.1% BSA, 11.34 nM Eu-anti-pY (PY20), 187.5 nM SA-XL665 for VEGFR2 and 50 mM HEPES, pH 7.5, 0.1% BSA, 11.34 nM Eu-anti-pY (PT66) (PerkinElmer), 375 nM SA-XL665 (Cisbio) for PDGFR-beta) was then added to each well and the plate sealed and incubated at room temperature for one hour on a plate shaker at 700 rpm. The plate was then read on a Packard Fusion plate reader or a BMG Pherastar both in TRF mode.

A further assay concerns the target T2, VEGFR2 (Homo sapiens, UniProt P35968).
T2 construct: purchased Upstate
As to the kind of experiment: VEGFR2 in vitro kinase inhibitory activity assay (TRF). The assay is classed as biochemical. Conditions: 0.5 μM ATP, 1 hour; read-out: VEGFR2 IC50(μM) or % I. The method, then:
as §1, §2

Assay [1] deals with parental wild-type Ba/F3 cells. As to the kind of experiment: Ba/F3 (WT) cell proliferation assay (Alamar Blue). The assay is classed as cell-based. Conditions: BaF3, 72 hours, read-out: BaF3 WT prolif; for IC50: with mouse IL-3. The method, then: (§3) Ba/F3-TEL-FGFR3 & Ba/F3 (WT) Cell Proliferation Assays
(§4) Stably transfected Ba/F3-TEL-FGFR3 cells were plated out into black 96-well tissue culture plates with clear bottoms in RPMI medium containing 10% FBS and 0.25 mg/ml G418 at a density of 5×10^3 cells/well (200 μl per well). The parental wild-type Ba/F3 cells (DSMZ no.: ACC 300) were plated out into black 96-well tissue culture plates with clear bottoms in RPMI medium containing 10% FBS and 2 ng/ml mouse IL-3 (R&D Systems) at a density of 2.5×10^3 cells/well (200 μl per well). Plates were placed in an incubator overnight before adding the compounds the following day. Dilutions of compounds were made in DMSO starting at 10 mM and were diluted into the wells to give a final DMSO concentration of 0.1% in assay. Compounds were left on the cells for 72 hours before the plates were removed from the incubator and 20 μl of Alamar Blue™ (Biosource) was added to each well. Plates were placed in the incubator for 4-6 hours before reading plates at 535 nm (excitation)/590 nm (emission) on a Fusion plate reader (Packard). Where inhibition is high an IC50 can be determined.

The next assay has as its target T3, Ba/F3-TEL-FGFR3 cells (Homo sapiens, UniProt P22607).
T3 construct: fused on or other part: P41212 (Transcription factor ETV6)
As to the kind of experiment: Ba/F3-TEL-FGFR3 cell proliferation assay (Alamar Blue). The assay is classed as cell-based. As to conditions: 72 hours; for GI50: read-out: BaF3-TEL-FGFR3 prolif; for BaF3-TEL-FGFR3 prolif (μM): % at 10.0 μM. As for the experimental part:
as §3, §4
(Alamar Blue is a resazurin reagent that responds to reducing activity.)

T2 sequence (P35968 20-1356): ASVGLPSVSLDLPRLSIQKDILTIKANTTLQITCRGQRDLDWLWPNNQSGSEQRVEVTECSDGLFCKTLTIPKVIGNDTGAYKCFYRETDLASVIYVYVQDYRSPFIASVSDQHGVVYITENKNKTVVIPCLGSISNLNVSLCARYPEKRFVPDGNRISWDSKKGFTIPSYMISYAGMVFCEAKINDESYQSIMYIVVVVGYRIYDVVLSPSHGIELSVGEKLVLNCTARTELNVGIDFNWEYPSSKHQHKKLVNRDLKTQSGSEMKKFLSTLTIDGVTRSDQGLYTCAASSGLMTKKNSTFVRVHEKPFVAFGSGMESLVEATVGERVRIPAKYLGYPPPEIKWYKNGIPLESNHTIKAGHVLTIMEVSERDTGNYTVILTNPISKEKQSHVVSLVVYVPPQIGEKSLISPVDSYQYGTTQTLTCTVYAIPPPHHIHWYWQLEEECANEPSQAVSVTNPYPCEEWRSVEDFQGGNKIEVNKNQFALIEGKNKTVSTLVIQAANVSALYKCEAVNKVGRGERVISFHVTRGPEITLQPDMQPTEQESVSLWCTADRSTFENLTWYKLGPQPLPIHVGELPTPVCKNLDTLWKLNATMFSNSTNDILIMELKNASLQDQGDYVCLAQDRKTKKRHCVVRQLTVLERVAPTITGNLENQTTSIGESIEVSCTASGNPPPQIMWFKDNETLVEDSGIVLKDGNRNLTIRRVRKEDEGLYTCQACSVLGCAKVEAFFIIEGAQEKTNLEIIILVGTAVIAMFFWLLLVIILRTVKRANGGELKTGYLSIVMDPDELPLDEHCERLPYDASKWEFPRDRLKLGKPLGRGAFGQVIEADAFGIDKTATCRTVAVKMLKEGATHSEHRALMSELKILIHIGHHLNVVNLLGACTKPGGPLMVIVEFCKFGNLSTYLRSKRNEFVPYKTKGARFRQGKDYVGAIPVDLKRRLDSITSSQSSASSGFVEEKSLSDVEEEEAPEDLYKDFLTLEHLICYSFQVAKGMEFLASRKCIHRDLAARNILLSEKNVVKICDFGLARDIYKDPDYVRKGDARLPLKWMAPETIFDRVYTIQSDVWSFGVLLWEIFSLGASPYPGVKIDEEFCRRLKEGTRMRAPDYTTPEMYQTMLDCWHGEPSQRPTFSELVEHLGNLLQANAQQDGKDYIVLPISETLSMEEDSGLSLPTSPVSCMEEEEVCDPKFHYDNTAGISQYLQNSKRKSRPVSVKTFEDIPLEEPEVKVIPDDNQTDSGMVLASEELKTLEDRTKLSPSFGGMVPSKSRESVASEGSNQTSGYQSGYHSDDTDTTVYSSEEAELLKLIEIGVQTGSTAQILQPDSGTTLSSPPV
T3 sequence (P22607 whole entry, change not shown, the tested form may be a part): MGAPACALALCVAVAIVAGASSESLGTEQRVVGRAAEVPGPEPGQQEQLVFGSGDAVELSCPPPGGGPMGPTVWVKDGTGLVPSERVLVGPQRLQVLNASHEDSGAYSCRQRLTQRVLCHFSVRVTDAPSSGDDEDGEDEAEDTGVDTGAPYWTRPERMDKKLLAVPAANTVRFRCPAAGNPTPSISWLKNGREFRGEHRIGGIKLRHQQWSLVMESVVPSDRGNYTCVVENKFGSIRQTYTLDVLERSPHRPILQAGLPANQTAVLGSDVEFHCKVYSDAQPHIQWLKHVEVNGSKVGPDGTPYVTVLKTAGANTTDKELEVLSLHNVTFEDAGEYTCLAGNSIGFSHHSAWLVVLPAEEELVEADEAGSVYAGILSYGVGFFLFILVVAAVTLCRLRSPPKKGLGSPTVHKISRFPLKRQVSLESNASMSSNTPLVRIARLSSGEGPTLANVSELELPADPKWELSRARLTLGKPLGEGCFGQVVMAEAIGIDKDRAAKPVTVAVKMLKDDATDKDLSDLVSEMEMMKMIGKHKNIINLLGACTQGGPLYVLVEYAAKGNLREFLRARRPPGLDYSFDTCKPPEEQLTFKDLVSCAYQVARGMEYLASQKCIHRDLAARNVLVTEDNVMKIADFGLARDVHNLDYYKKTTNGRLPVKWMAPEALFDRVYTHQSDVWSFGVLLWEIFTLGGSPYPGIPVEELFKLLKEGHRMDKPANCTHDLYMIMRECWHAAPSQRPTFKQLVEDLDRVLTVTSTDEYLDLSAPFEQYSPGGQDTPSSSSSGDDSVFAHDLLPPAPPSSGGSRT
T1 sequence (P22607 23-806): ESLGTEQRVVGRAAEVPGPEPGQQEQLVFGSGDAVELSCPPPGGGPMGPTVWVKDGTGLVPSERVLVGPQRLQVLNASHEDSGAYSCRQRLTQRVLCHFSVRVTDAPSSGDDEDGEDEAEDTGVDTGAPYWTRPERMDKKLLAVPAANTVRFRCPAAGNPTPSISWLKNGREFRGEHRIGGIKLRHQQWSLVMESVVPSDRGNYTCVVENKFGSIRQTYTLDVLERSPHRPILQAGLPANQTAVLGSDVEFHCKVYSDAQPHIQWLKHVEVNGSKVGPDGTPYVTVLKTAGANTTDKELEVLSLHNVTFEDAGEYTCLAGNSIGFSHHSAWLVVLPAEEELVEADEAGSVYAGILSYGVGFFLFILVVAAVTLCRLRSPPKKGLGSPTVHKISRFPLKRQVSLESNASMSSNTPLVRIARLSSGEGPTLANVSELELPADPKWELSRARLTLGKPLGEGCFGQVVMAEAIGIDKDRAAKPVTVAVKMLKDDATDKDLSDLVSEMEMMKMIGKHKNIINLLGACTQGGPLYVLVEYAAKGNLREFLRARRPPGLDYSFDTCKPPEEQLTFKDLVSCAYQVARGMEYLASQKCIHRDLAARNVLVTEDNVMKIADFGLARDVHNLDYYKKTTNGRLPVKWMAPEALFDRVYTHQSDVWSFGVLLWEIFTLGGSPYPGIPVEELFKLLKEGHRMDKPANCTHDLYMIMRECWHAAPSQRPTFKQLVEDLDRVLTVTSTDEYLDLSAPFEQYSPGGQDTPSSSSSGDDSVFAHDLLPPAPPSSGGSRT

Turning to `CC(C)(C)c1nc(CON=Cc2ccn3c(-c4cccc(NC(=O)NCC(F)(F)F)c4)cnc3c2)no1` [Compound 1-14, 1-(3-{7-[(5-tert-Butyl-[1,2,4]oxadiazol-3-ylmethoxyimino)-methyl]-imidazo[1,2-a]pyridin-3-yl}-phenyl)-3-(2,2,2-trifluoro-ethyl)-urea], the values for the IC50 at FGFR3 and at VEGFR2 were 0.027 µM and 0.68 µM, respectively. Moreover, in assay [1] (Mus musculus), the inhibition at 3 µM was 43%. Besides, the GI50 on Ba/F3-TEL-FGFR3 cells was 560 nM.

On to `O=C(NCC(F)(F)F)Nc1cccc(-c2cnc3cc(C=NOCc4ccco4)ccn23)c1` [Compound 1-15, 1-(3-{7-[(Furan-2-ylmethoxyimino)-methyl]-imidazo[1,2-a]pyridin-3-yl}-phenyl)-3-(2,2,2-trifluoro-ethyl)-urea], for which the IC50 on FGFR3 stood at 0.026 µM; at VEGFR2 it was 0.98 µM; in assay [1], 4600 nM. Further, at Ba/F3-TEL-FGFR3 cells, the GI50 was 43 nM.

For `Nc1nc(CON=Cc2ccn3c(-c4cccc(NC(=O)NCC(F)(F)F)c4)cnc3c2)cs1` [Compound 1-16, 1-(3-{7-[(2-Amino-thiazol-4-ylmethoxyimino)-methyl]-imidazo[1,2-a]pyridin-3-yl}-phenyl)-3-(2,2,2-trifluoro-ethyl)-urea], the IC50 on FGFR3 stood at 0.018 µM; on VEGFR2, 0.61 µM. For the same compound, in assay [1] (Mus musculus), the inhibition at 10 µM came out at 19%. Also, the GI50 on Ba/F3-TEL-FGFR3 cells was 1300 nM.

Consider `Cc1cc(CON=Cc2ccn3c(-c4cccc(NC(=O)NCC(F)(F)F)c4)cnc3c2)no1` [Compound 1-17, 1-(3-{7-[(5-Methyl-isoxazol-3-ylmethoxyimino)-methyl]-imidazo[1,2-a]pyridin-3-yl}-phenyl)-3-(2,2,2-trifluoro-ethyl)-urea], for which the IC50 at FGFR3 was found to be 0.013 µM; at VEGFR2, 0.66 µM; in assay [1] it was 4100 nM. On Ba/F3-TEL-FGFR3 cells, the GI50 turned out to be 230 nM.

For the compound `O=C(NCC(F)(F)F)Nc1cccc(-c2cnc3cc(/C=N/OCCCO)ccn23)c1` [Compound 1-18, 1-(3-{7-[(3-Hydroxy-propoxyimino)-methyl]-imidazo[1,2-a]pyridin-3-yl}-phenyl)-3-(2,2,2-trifluoro-ethyl)-urea], the IC50 at FGFR3 was 0.019 µM; on VEGFR2, 0.4 µM; in assay [1], 4700 nM. Further, the GI50 at Ba/F3-TEL-FGFR3 cells turned out to be 240 nM.

Consider `N=C(N)Nc1nc(CON=Cc2ccn3c(-c4cccc(NC(=O)NCC(F)(F)F)c4)cnc3c2)cs1` [Compound 1-19, 1-(3-{7-[(2-Guanidino-thiazol-4-ylmethoxyimino)-methyl]-imidazo[1,2-a]pyridin-3-yl}-phenyl)-3-(2,2,2-trifluoro-ethyl)-urea], for which the figures for the IC50 (on FGFR3; at VEGFR2; in assay [1]) were 0.023 µM, 0.67 µM and 5200 nM, respectively. Also, the GI50 on Ba/F3-TEL-FGFR3 cells worked out at 2400 nM.

As for `C/C(=N\O)c1ccn2c(-c3cccc(NC(=O)NCC(F)(F)F)c3)cnc2c1` [Compound 1-21, 1-[3-(7-{1-Hydroxyimino-ethyl}-imidazo[1,2-a]pyridin-3-yl)-phenyl]-3-(2,2,2-trifluoro-ethyl)-urea], the IC50 at FGFR3 was 0.0019 µM; at VEGFR2, 0.03 µM. Moreover, the inhibition at 10 µM in assay [1] (Mus musculus) was 17%. Besides, the GI50 at Ba/F3-TEL-FGFR3 cells is 46 nM.

For `CON=C(c1ccn2c(-c3cccc(NC(=O)NCC(F)(F)F)c3)cnc2c1)C1CC1` [Compound 1-24, 1-[3-(7-{Cyclopropyl-methoxyimino-methyl}-imidazo[1,2-a]pyridin-3-yl)-phenyl]-3-(2,2,2-trifluoro-ethyl)-urea], the IC50 on FGFR3 was 0.015 µM; at VEGFR2, 0.23 µM. Besides, the inhibition at 1 µM in assay [1] (Mus musculus, % at 1.00 μM) is 38%. For the same compound, the GI50 at Ba/F3-TEL-FGFR3 cells came out at 260 nM.

On to `CCC(=NOC)c1ccn2c(-c3cccc(NC(=O)NCC(F)(F)F)c3)cnc2c1` [Compound 1-25, 1-[3-(7-{1-Methoxyimino-propyl}-imidazo[1,2-a]pyridin-3-yl)-phenyl]-3-(2,2,2-trifluoro-ethyl)-urea], for which the values for the IC50 on FGFR3 and on VEGFR2 were 0.011 µM and 0.24 µM, respectively. In assay [1] (Mus musculus), the inhibition at 3 µM was found to be 46%. In addition, the GI50 on Ba/F3-TEL-FGFR3 cells was 320 nM.

As to `CCC(=NO)c1ccn2c(-c3cccc(NC(=O)NCC(F)(F)F)c3)cnc2c1` [Compound 1-26, 1-[3-(7-{1-Hydroxyimino-propyl}-imidazo[1,2-a]pyridin-3-yl)-phenyl]-3-(2,2,2-trifluoro-ethyl)-urea], the IC50 is 0.0045 µM on FGFR3 and 0.083 µM at VEGFR2. In assay [1] (Mus musculus), the inhibition at 10 µM was 40%. Further, at Ba/F3-TEL-FGFR3 cells, the GI50 came out at 120 nM.

Consider `CON=C(c1ccn2c(-c3cccc(NC(=O)NCC(F)(F)F)c3)cnc2c1)C1CCC1` [Compound 1-27, 1-[3-(7-{Cyclobutyl-methoxyimino-methyl}-imidazo[1,2-a]pyridin-3-yl)-phenyl]-3-(2,2,2-trifluoro-ethyl)-urea], for which the IC50 on FGFR3 is 0.08 µM; on VEGFR2, 1.2 µM; in assay [1], 1500 nM. In addition, the GI50 at Ba/F3-TEL-FGFR3 cells is 1300 nM.

On to `O=C(NCC(F)(F)F)Nc1cccc(-c2cnc3cc(C(=NO)C4CCC4)ccn23)c1` [Compound 1-28, 1-[3-(7-{Cyclobutyl-hydroxyimino-methyl}-imidazo[1,2-a]pyridin-3-yl)-phenyl]-3-(2,2,2-trifluoro-ethyl)-urea], for which the IC50 amounted to 0.022 µM on FGFR3 and 0.33 µM at VEGFR2. In assay [1] (Mus musculus), the inhibition at 3 µM came out at 43%. Moreover, at Ba/F3-TEL-FGFR3 cells, the GI50 turned out to be 570 nM.

As for `CON=C(CC1CC1)c1ccn2c(-c3cccc(NC(=O)NCC(F)(F)F)c3)cnc2c1` [Compound 1-29, 1-[3-(7-{2-Cyclopropyl-1-methoxyimino-ethyl}-imidazo[1,2-a]pyridin-3-yl)-phenyl]-3-(2,2,2-trifluoro-ethyl)-urea], the results for the IC50 at FGFR3 and on VEGFR2 were 0.059 µM and over 1 µM, respectively. For the same compound, in assay [1] (Mus musculus), the inhibition at 10 µM worked out at 16%. At Ba/F3-TEL-FGFR3 cells, the “BaF3-TEL-FGFR3 prolif (μM)” value stood at 28.0% at.

Regarding `O=C(NCC(F)(F)F)Nc1cccc(-c2cnc3cc(C(CC4CC4)=NO)ccn23)c1` [Compound 1-30, 1-[3-(7-{2-Cyclopropyl-1-hydroxyimino-ethyl}-imidazo[1,2-a]pyridin-3-yl)-phenyl]-3-(2,2,2-trifluoro-ethyl)-urea], the IC50 on FGFR3 was determined as 0.019 µM; at VEGFR2, 0.29 µM. Further, in assay [1] (Mus musculus), the inhibition at 10 µM is 20%. The “BaF3-TEL-FGFR3 prolif (μM)” value at Ba/F3-TEL-FGFR3 cells was found to be 43.0% at.

Take `CC(C)Oc1cc(NC(=O)NCC(F)(F)F)cc(-c2cnc3cc(/C(=N/O)C4CC4)ccn23)c1` [Compound 1-31, 1-[3-(7-{Cyclopropyl-hydroxyimino-methyl}-imidazo[1,2-a]pyridin-3-yl)-5-isopropoxy-phenyl]-3-(2,2,2-trifluoro-ethyl)-urea]: the IC50 on FGFR3 came to 0.023 µM; at VEGFR2 it was 1.34 µM; in assay [1], 6200 nM. In addition, the GI50 at Ba/F3-TEL-FGFR3 cells came to 470 nM.

For the compound `O=C(NCC(F)(F)F)Nc1cccc(-c2cnc3cc(/C(=N/OCCO)C4CC4)ccn23)c1` [Compound 1-32, 1-[3-(7-{Cyclopropyl-[2-hydroxy-ethoxyimino]-methyl}-imidazo[1,2-a]pyridin-3-yl)-phenyl]-3-(2,2,2-trifluoro-ethyl)-urea], the IC50 was 0.072 µM at FGFR3 and 0.96 µM on VEGFR2. For the same compound, in assay [1] (Mus musculus), the inhibition at 10 µM was 50%. Further, the GI50 at Ba/F3-TEL-FGFR3 cells was determined as 1100 nM.

Take `O=C(NCC(F)(F)F)Nc1cccc(-c2cnc3cc(/C(=N\OCCO)C4CC4)ccn23)c1` [Compound 1-33, 1-[3-(7-{Cyclopropyl-[2-hydroxy-ethoxyimino]-methyl}-imidazo[1,2-a]pyridin-3-yl)-phenyl]-3-(2,2,2-trifluoro-ethyl)-urea]: the IC50 on FGFR3 was 0.018 µM; at VEGFR2, 0.18 µM; in assay [1] it was 11000 nM. In addition, the GI50 on Ba/F3-TEL-FGFR3 cells was 250 nM.
